Measured values taken from patent US11008317B2, “Triazolopyridine inhibitors of myeloperoxidase and/or EPX” (priority 2016, dated 2021).

Tests used:
myeloperoxidase [1] = molecular target: T1, myeloperoxidase (Homo sapiens, UniProt P05164); experiment: MPO Peroxidation Assay (Amplex Red Assay); format: biochemical; settings: potency range class
T1 sequence (P05164 49-745): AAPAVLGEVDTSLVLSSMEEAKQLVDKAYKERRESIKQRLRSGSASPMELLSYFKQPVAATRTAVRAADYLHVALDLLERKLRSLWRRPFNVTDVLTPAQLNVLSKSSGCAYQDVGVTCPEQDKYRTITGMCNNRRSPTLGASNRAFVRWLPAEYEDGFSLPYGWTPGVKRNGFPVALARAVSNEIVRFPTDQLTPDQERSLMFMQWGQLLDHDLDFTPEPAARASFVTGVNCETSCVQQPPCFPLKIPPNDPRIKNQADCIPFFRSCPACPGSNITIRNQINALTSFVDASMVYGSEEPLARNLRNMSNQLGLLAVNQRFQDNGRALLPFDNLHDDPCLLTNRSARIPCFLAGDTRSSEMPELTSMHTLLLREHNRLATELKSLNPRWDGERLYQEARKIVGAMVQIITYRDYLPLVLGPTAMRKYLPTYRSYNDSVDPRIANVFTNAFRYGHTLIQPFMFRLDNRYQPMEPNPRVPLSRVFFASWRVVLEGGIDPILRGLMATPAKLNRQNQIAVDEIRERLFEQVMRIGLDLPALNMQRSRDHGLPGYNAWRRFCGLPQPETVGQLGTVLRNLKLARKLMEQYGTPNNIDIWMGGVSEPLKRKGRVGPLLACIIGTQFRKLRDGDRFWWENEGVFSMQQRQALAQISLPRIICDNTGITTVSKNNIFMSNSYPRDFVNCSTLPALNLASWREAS

myeloperoxidase [2] = molecular target: T1, myeloperoxidase; experiment: MPO Chlorination Assay (APF Assay); format: biochemical; settings: potency range class
[3] = read-out: Amplex Red Assay IC50 value

Row | Structure (SMILES) | IC50 (myeloperoxidase [1]; [3]) [µM] | IC50 (myeloperoxidase [2]; read-out: APF Assay IC50 value) [µM] | IC50 (myeloperoxidase [1]; Amplex Red Assay IC50 value (μM)) [µM] | IC50 (myeloperoxidase [2]; APF Assay IC50 value (μM)) [µM]
1 | CC1C[C@H](NCCC(c2ccccc2)c2cc(N)nc3[nH]nnc23)c2ccccc21 (stereo partly drawn) [Example 95, 7-(3-{[(1S)-3-methyl-2,3-dihydro-1H-inden-1-yl]amino}-1-phenylpropyl)-3H-[1,2,3]triazolo[4,5-b]pyridin-5-amine] | 0.101 to 0.999 | 0.001 to 0.1 |  | 
2 | CC(C)(C)C1CCC(NCCC(c2ccccc2)c2cc(N)nc3[nH]nnc23)CC1 (stereo not shown) [Example 96, 7-{3-[(4-tert-butylcyclohexyl)amino]-1-phenylpropyl}-3H-[1,2,3]triazolo[4,5-b] pyridin-5-amine] | 1 to 10 | 0.101 to 0.999 |  | 
3 | CC1C[C@@H](NCCC(c2ccccc2)c2cc(N)nc3[nH]nnc23)c2ccccc21 (stereo partly drawn) [Example 98, 7-(3-{[(1R)-3-methyl-2,3-dihydro-1H-inden-1-yl]amino}-1-phenylpropyl)-3H-[1,2,3]triazolo [4,5-b] pyridin-5-amine] | 0.101 to 0.999 | 0.001 to 0.1 |  | 
4 | CC1C[C@H](NCCC(c2ccccc2)c2cc(N)nc3[nH]nnc23)c2ccccc21 (stereo partly drawn) [Example 99, 7-(3-{[(1S)-3-methyl-2,3-dihydro-1H-inden-1-yl]amino}-1-phenylpropyl)-3H-[1,2,3]triazolo[4,5-b] pyridin-5-amine] | 0.101 to 0.999 | 0.001 to 0.1 |  | 
5 | CC(C)(CNCCC(c1ccccc1)c1cc(N)nc2[nH]nnc12)c1ccccc1 (stereo not shown) [Example 104, 7-{3-[(2-methyl-2-phenylpropyl)amino]-1-phenylpropyl}-3H-[1,2,3]triazolo[4,5-b] pyridin-5-amine] | 0.101 to 0.999 | 0.101 to 0.999 |  | 
6 | Nc1cc(C(CCNC2CCC(c3cccc(Cl)c3)CC2)c2ccccc2)c2nn[nH]c2n1 (stereo not shown) [Example 105, 7-(3-{[4-(3-chlorophenyl)cyclohexyl]amino}-1-phenylpropyl)-3H-[1,2,3]triazolo[4,5-b]pyridin-5-amine] | 1 to 10 | 0.001 to 0.1 |  | 
7 | Nc1cc(C(CCNCCCc2ccccc2)c2ccccc2)c2nn[nH]c2n1 (stereo not shown) [Example 106, 7-{1-phenyl-3-[(3-phenylpropyl)amino]propyl}-3H-[1,2,3] triazolo[4,5-b] pyridin-5-amine] | 0.101 to 0.999 | 0.101 to 0.999 |  | 
8 | Nc1cc(C(CCN[C@H]2CC[C@@H](c3ccc(Cl)cc3)CC2)c2ccccc2)c2nn[nH]c2n1 (stereo partly shown) [Example 107, 7-(1-phenyl-3-{[(1s,4s)-4-(4-chlorophenyl)cyclohexyl]amino}propyl)-3H-[1,2,3] triazolo[4,5-b] pyridin-5-amine] | 0.101 to 0.999 | 0.001 to 0.1 |  | 
9 | Nc1cc(C(CCN[C@H]2CC[C@H](c3ccc(Cl)cc3)CC2)c2ccccc2)c2nn[nH]c2n1 (stereo partly drawn) [Example 108, 7-(1-phenyl-3-{[(trans)-4-(4-chlorophenyl)cyclohexyl]amino}propyl)-3H-[1,2,3] triazolo[4,5-b] pyridin-5-amine] | 0.101 to 0.999 | 0.001 to 0.1 |  | 
10 | Nc1cc(C(CCNCCc2ccccc2)c2ccccc2)c2nn[nH]c2n1 (stereo not shown) [Example 109, 7-{1-phenyl-3-[(2-phenylethyl)amino]propyl}-3H-[1,2,3] triazolo[4,5-b] pyridin-5-amine] | 0.101 to 0.999 | 0.101 to 0.999 |  | 
11 | CC1(NCCC(c2ccccc2)c2cc(N)nc3[nH]nnc23)CCc2ccccc21 (stereo not shown) [Example 110, 7-{3-[(1-methyl-2,3-dihydro-1H-inden-1-yl)amino]-1-phenylpropyl}-3H-[1,2,3]triazolo[4,5-b]pyridin-5-amine] | 0.101 to 0.999 | 0.101 to 0.999 |  | 
12 | Nc1cc(C(CCNC2CCC(c3ccc(F)cc3)CC2)c2ccccc2)c2nn[nH]c2n1 (stereo not shown) [Example 112, 7-(3-{[4-(4-fluorophenyl)cyclohexyl]amino}-1-phenylpropyl)-3H-[1,2,3]triazolo [4,5-b]pyridin-5-amine] | 0.101 to 0.999 | 0.101 to 0.999 |  | 
13 | Nc1cc(C(CCNC2(CO)CCC(c3ccccc3)CC2)c2ccccc2)c2nn[nH]c2n1 (stereo not shown) [Example 116, {1-[(3-{5-amino-3H-[1,2,3]triazolo[4,5-b]pyridin-7-yl}-3-phenylpropyl)amino]-4-phenylcyclohexyl} methanol] | 0.101 to 0.999 | 0.001 to 0.1 |  | 
14 | NC(=O)c1ccc(C2CCC(NCCC(c3ccccc3)c3cc(N)nc4[nH]nnc34)CC2)cc1 (stereo not shown) [Example 117, 4-{4-[(3-{5-amino-3H-[1,2,3]triazolo [4,5-b]pyridin-7-yl}-3-phenylpropyl)amino]cyclohexyl} benzamide] | 0.101 to 0.999 | 0.001 to 0.1 |  | 
15 | NC(=O)c1ccc(C2CCC(NCCC(c3ccccc3)c3cc(N)nc4[nH]nnc34)CC2)cc1 (stereo not shown) [Example 118, 4-{4-[(3-{5-amino-3H-[1,2,3]triazolo [4,5-b]pyridin-7-yl}-3-phenylpropyl)amino]cyclohexyl} benzamide] | 0.101 to 0.999 | 0.101 to 0.999 |  | 
16 | CC(C)(Cc1ccccc1)NCCC(c1ccccc1)c1cc(N)nc2[nH]nnc12 (stereo not shown) [Example 119, 7-{3-[(2-methyl-1-phenylpropan-2-yl)amino]-1-phenylpropyl}-3H-[1,2,3]triazolo [4,5-b]pyridin-5-amine] | 0.101 to 0.999 | 0.001 to 0.1 |  | 
17 | Nc1cc(C(CCNCC(c2ccccc2)c2ccccc2)c2ccccc2)c2nn[nH]c2n1 (stereo not shown) [Example 120, 7-{3-[(2,2-diphenylethyl)amino]-1-phenylpropyl}-3H-[1,2,3]triazolo[4,5-b]pyridin-5-amine] | 1 to 10 | 0.001 to 0.1 |  | 
18 | COc1ccc2c(c1)CC[C@H]2NCCC(c1ccccc1)c1cc(N)nc2[nH]nnc12 (stereo partly drawn) [Example 121, 7-(3-{[(1R)-5-methoxy-2,3-dihydro-1H-inden-1-yl]amino}-1-phenylpropyl)-3H-[1,2,3]triazolo[4,5-b]pyridin-5-amine] | 0.101 to 0.999 | 0.101 to 0.999 |  | 
19 | Nc1cc(C(CCN[C@@H]2CCc3c(Cl)cc(Cl)cc32)c2ccccc2)c2nn[nH]c2n1 (stereo partly drawn) [Example 123, 7-(3-{[(1R)-4,6-dichloro-2,3-dihydro-1H-inden-1-yl]amino}-1-phenylpropyl)-3H-[1,2,3]triazolo[4,5-b]pyridin-5-amine] | 0.101 to 0.999 | 0.101 to 0.999 |  | 
20 | Nc1cc(C(CCN[C@@H]2CCc3ccc(C(F)(F)F)cc32)c2ccccc2)c2nn[nH]c2n1 (stereo partly drawn) [Example 124, 7-(1-phenyl-3-{[(1R)-6-(trifluoromethyl)-2,3-dihydro-1H-inden-1-yl]amino}propyl)-3H-[1,2,3] triazolo[4,5-b] pyridin-5-amine] | 1 to 10 | 0.101 to 0.999 |  | 
21 | Nc1cc(C(CCNC2CCC(c3ccc(F)cc3)CC2)c2ccccc2)c2nn[nH]c2n1 (stereo not shown) [Example 125, 7-(3-{[4-(4-fluorophenyl)cyclohexyl]amino}-1-phenylpropyl)-3H-[1,2,3]triazolo[4,5-b]pyridin-5-amine] | 0.101 to 0.999 | 0.001 to 0.1 |  | 
22 | Nc1cc(C(CCNC2CCC(Cc3ccccc3)(c3ccccc3)CC2)c2ccccc2)c2nn[nH]c2n1 (stereo not shown) [Example 126, 7-{3-[(4-benzyl-4-phenylcyclohexyl)amino]-1-phenylpropyl}-3H-[1,2,3]triazolo[4,5-b]pyridin-5-amine] | 1 to 10 | 0.001 to 0.1 |  | 
23 | Nc1cc(C(CCNC2CCC(c3ccccc3)(c3ccccc3)CC2)c2ccccc2)c2nn[nH]c2n1 (stereo not shown) [Example 127, 7-{3-[(4,4-diphenylcyclohexyl)amino]-1-phenylpropyl}-3H-[1,2,3]triazolo[4,5-b]pyridin-5-amine] | 1 to 10 | 0.001 to 0.1 |  | 
24 | Nc1cc(C(CCNC2(c3ccccc3)CCCCC2)c2ccccc2)c2nn[nH]c2n1 (stereo not shown) [Example 128, 7-{1-phenyl-3-[(1-phenylcyclohexyl)amino]propyl}-3H-[1,2,3]triazolo [4,5-b]pyridin-5-amine] |  |  | 1 to 10 | 0.001 to 0.1
25 | Nc1cc(C(CCNC2CCC(Cc3ccccc3)CC2)c2ccccc2)c2nn[nH]c2n1 (stereo not shown) [Example 129, 7-{3-[(4-benzylcyclohexyl)amino]-1-phenylpropyl}-3H-[1,2,3]triazolo[4,5-b]pyridin-5-amine] | 1 to 10 | 0.001 to 0.1 |  | 
26 | CCCCC12CCC(NCCC(c3ccccc3)c3cc(N)nc4[nH]nnc34)(CC1)CC2 (stereo not shown) [Example 130, 7-[3-({4-butylbicyclo [2.2.2]octan-1-yl}amino)-1-phenylpropyl]-3H-[1,2,3]triazolo[4,5-b]pyridin-5-amine] | 0.101 to 0.999 | 0.001 to 0.1 |  | 
27 | Nc1cc(C(CCNC2CCC(c3cccnc3)CC2)c2ccccc2)c2nn[nH]c2n1 (stereo not shown) [Example 132, 7-(1-phenyl-3-{[4-(pyridin-3-yl)cyclohexyl]amino]propyl)-3H-[1,2,3] triazolo[4,5-b] pyridin-5-amine] | 1 to 10 | 1 to 10 |  | 
28 | Nc1cc(C(CCN[C@H]2CC[C@@H](c3ccc(=O)[nH]c3)CC2)c2ccccc2)c2nn[nH]c2n1 (stereo partly drawn) [Example 133, 5-[(cis)-4-[(3-{5-amino-3H-[1,2,3]triazolo[4,5-b]pyridin-7-yl}-3-phenylpropyl)amino]cyclohexyl]-1,2-dihydropyridin-2-one] | 0.101 to 0.999 | 0.101 to 0.999 |  | 
29 | Nc1cc(C(CCN[C@H]2CC[C@H](c3ccc(=O)[nH]c3)CC2)c2ccccc2)c2nn[nH]c2n1 (stereo partly drawn) [Example 134, 5-[(trans)-4-[(3-{5-amino-3H-[1,2,3]triazolo[4,5-b]pyridin-7-yl}-3-phenylpropyl)amino]cyclohexyl]-1,2-dihydropyridin-2-one] | 0.101 to 0.999 | 0.101 to 0.999 |  | 
